Laboratory results published in US10745731B2, “Recombinant production method” (Hoffmann-La Roche Inc., priority 2015, dated 2020).
Read-outs that look alike come from different tables or passages of the source.

Experiments:
HEK293F cells [1] = assay: Transient gene expression in HEK293F cells: cell specific productivity of the expressed antibody; type: cell-based, human; settings: for specific productivity after 96 hours: none 2.01; for activity at 0.015 µM: 15 nM; for Mean cell specific productivity: untreated 1.71; for TGE enhancement after BAY11-7082 treatment compared to the corresponding single treatment: BAY11-7082 added 24 hours after stimulation
Description: HEK293F cells were cultivated in F17 medium (Life Technologies) in shaker flasks at 36.5° C., 7.0% CO2 and 80% humidity in a shaker incubator (Kuhner, Mytron). Cells were split every three to four days and were cultivated no longer than five weeks. To avoid overgrowth and to keep them in the exponential phase of growth, viable cell densities (VCD) never exceeded 60*10^5 cells/mL.
(§1) Transient gene expression is a 5-7 days lasting procedure. The standard operating procedure of this expression system is applicable to shaker flasks with various volumes of cell culture ranging from 80 mL to 2 L. First, half of the cell culture volume is seeded at a viable cell density (VCD) of 8*10^5 cells/mL. After two days of cultivation, cells are split to a VCD of about 12*10^5 cells/mL. On the next day, cells are transfected with a polyethylene imine (PEI)-based transfection reagent at a VCD between 20*10^5 cells/mL and 25*10^5 cells/mL. 3 hours after transfection, the production enhancer (if any) is added. 24 h after transfection, a feeding solution and a glucose bolus is supplemented to avoid the limitation of nutrients. Depending on cell viability, which should not decrease below 50%, the supernatant is harvested five to seven days post transfection and subjected to antibody purification.
(§2) To compare transient gene expression rates always the same plasmids encoding for one distinct antibody were co-transfected.
(§3) To co-transfect two plasmids equimolarily, the ratio of the base pair number of one plasmid to the total base pair number was calculated and multiplied with the total amount of DNA (0.5 mg/L). Plasmid one has a size of 10530 bp and plasmid two has a size of 7184 bp and were solved in water to a final concentration of 1 mg/mL. For transfection of one liter cell culture, 297 μL of plasmid one and 203 μl of plasmid two were dissolved in 40 mL phosphate buffered saline (PBS) at room temperature. 1.25 mL JetPEI® solution was added and the solution was mixed well. After incubation for 10-15 min., the mixture was added to the cells. The cells were transfected in a batch containing the whole cell culture necessary for every experiment to avoid variance arising from different transfection efficiencies.
(§4) 80 mL of the transfected cell culture batch was added to a 125 ml shaker flask. For every experiment, two or three 125 mL shaker flasks were used as biological replicates and treated the same way. Three hours after transfection, cells were split into 125 mL shaker flasks and the cellular treatments with small molecules or ligands were started. Basal protein expression was determined by untreated control samples. To compare samples with the standard operating procedure, cells were also treated with VPA to a final concentration of 4 mM or 3 mM. VPA and its analogues were dissolved in double distilled water. […] Tumor necrosis factor (TNF) alpha was reconstituted with PBS supplemented with 0.1% BSA. Flagellin was dissolved in sterile double distilled water. The applied molecules were not added to the cultivation directly, but diluted in 16 mL medium pre-warmed to 36.5° C. and added to the cultivation thereafter.
(§5) 24 h after transfection a feeding solution at 36.5° C. and 3 mg/mL glucose were added to the cultivation.
(§6) To determine cell viability and viable cell density (VCD) 1 mL cultivation medium (cell suspension) was transferred into a Cedex low fouling sample cup. The cup was placed into a Vicell instrument (Beckman Coulter). The instrument mixes cells with trypan blue to stain dead cells. After analysis of 50 images VCD was calculated and viability was determined by calculation of the percentage of viable cell number in relation to the total cell number.
(§7) Total concentration of the transiently expressed antibody was determined by a turbidimetric test. One mL cell suspension was transferred into an Eppendorf cup and centrifuged for 10 min. at 10,000 rpm (9,300 g).

HDAC [2] = settings: cited from earlier work
HEK293F cells [3] = assay: Transient gene expression in HEK293F cells: IgG concentration / titer (turbidimetric test); type: cell-based, human; settings: none=100, N=1, FIG. 7
Description: as §1, §2, §3, §4, §5
as §7, with “g). The supernatant was transferred into a new cup and subjected to Cobas Integra 400 plus (Roche) analysis. With comparison to internal standard the absolute concentration was calculated.” for “g).”

HEK293F cells [4] = type: cell-based; settings: in words
Description: as §6

HDAC [5] = assay: in situ HDAC activity fluorimetric assay in HEK293F cells; type: cell-based, human; settings: for HDAC inhibition: yes/no, summary table
Description: HDAC activity was determined by the in situ HDAC activity fluorimetric assay kit (Biovision) according to the manufacturer's instructions. HEK293F cells were suspended in F17 medium (Life Technologies) to a cell density of 5*10^5 cells/mL. One hundred micro liter culture was pipetted per well into a black ELISA plate. The plate was centrifuged at 1000 g for 5 min. The supernatant was discarded and the cells were resuspended in a reaction mix containing F17 medium, 1% HDAC substrate and the molecule tested towards HDAC inhibitory activity. 10 μM Trichostatin A was used as a positive control and the basal HDAC activity was determined by re-suspending the cells in F17 medium with 1% HDAC substrate. Furthermore, cells were resuspended in F17 medium without HDAC substrate as a background control. The HDAC activity assay was performed in triplicates for every sample as well as every control. The 96-well plate was incubated at 36.5° C., 80% humidity and 7% CO2 for one hour. During this time, the active HDACs deacetylate the HDAC substrate what releases the quenched fluorescent signal of the substrate. After incubation the fluorescent signal was analyzed by the infinite fluorescence plate reader (TECAN). The fluorescence signal of the samples and controls was normalized by subtracting the fluorescence signal of the background control. It is assumed that the fluorescent signal arising from deacetylation of the substrate directly correlates with HDAC activity.

[6] = description from the literature
[7] = 50 ng/mL, none=100, N=2, FIG. 5

## Cc1ccc(S(=O)(=O)/C=C/C#N)cc1 [BAY 11-7082, BAY11-7082]
HEK293F cells [1]; 1 μM alone, N=3
  specific productivity after 96 hours: 2.21 pg/cell/day
HEK293F cells [1]; 5 μM alone, N=3
  specific productivity after 96 hours: 2.30 pg/cell/day
HEK293F cells [1]; 15 μM alone, N=3
  specific productivity after 96 hours: 2.27 pg/cell/day
HEK293F cells [1]; NFκB (IκB kinase) inhibition in transfected HEK293F cells
  duration of the effect: about 4 days

## O=C(/C=C/c1cccc(S(=O)(=O)Nc2ccccc2)c1)NO [Belinostat]
HEK293F cells [1]; Homo sapiens, HEK293F, employed concentration 1 μM, none=100, N=2, FIG. 2B, read-out: relative cell specific productivity
  activity at 1 µM: 115%

## CCCCOc1ccc(CC(=O)NO)cc1 [Bufexamac]
HEK293F cells [1]; Homo sapiens, HEK293F, employed concentration 10 μM, none=100, N=1, FIG. 2B, read-out: relative cell specific productivity
  activity at 10 µM: 94%
HDAC [2]; [6]
  HDAC class / isoform selectivity: selective class IIb HDAC inhibitor

## Nc1ccccc1NC(=O)c1ccc(CNC(=O)OCc2cccnc2)cc1 [Entinostat]
HEK293F cells [1]; Homo sapiens, HEK293F, employed concentration 300 nM, none=100, N=2, FIG. 2B, read-out: relative cell specific productivity
  activity at 0.3 µM: 108%
HDAC [2]; [6]
  HDAC class / isoform selectivity: class I HDAC inhibitor with additional inhibitory activity to class IIa member HDAC 9

## Nc1ccccc1NC(=O)c1ccc(CNc2nccc(-c3cccnc3)n2)cc1 [Mocetinostat]
HEK293F cells [1]; Homo sapiens, HEK293F, employed concentration 2 μM, none=100, N=2, FIG. 2B, read-out: relative cell specific productivity
  activity at 2 µM: 135%
HDAC [2]; [6]
  HDAC class / isoform selectivity: lowest IC50 values for HDAC 1 and 2 and modest inhibitory activity against HDAC 3 and HDAC 11

## COc1ccc(Cn2ccc3ccc(C(=O)NO)cc32)cc1 [PCI34051]
HEK293F cells [3]; 5 μM
  relative IgG concentration: 99%
HDAC [2]; [6]
  HDAC class / isoform selectivity: HDAC 8-specific inhibitor

## CCCCCCCCCCCCCC(=O)O[C@@H]1[C@@H](C)[C@@]2(O)[C@@H](C=C(CO)C[C@]3(O)C(=O)C(C)=C[C@@H]23)[C@@H]2C(C)(C)[C@]12OC(C)=O [PMA, phorbol myristate acetate]
HEK293F cells [1]; Homo sapiens, HEK293F, 100 nM, none=100, N=2, FIG. 5, read-out: relative cell specific productivity
  activity at 0.1 µM: 149%

## Nc1cc(F)ccc1NC(=O)/C=C/c1cnn(C/C=C/c2ccccc2)c1 [RGFP966]
HEK293F cells [3]; 1 μM
  relative IgG concentration: 103%
HDAC [2]; [6]
  HDAC class / isoform selectivity: specific HDAC 3 inhibitor

## C/C=C1\NC(=O)[C@H]2CSSCC/C=C/[C@H](CC(=O)N[C@H](C(C)C)C(=O)N2)OC(=O)[C@H](C(C)C)NC1=O [Romidepsin]
HEK293F cells [1]; Homo sapiens, HEK293F, none=100, N=3, FIG. 8A, read-out: relative cell specific productivity
  activity at 0.015 µM: 203%
HEK293F cells [1]; Homo sapiens, HEK293F, none=100, N=3, FIG. 9A, read-out: relative cell specific productivity
  activity at 0.015 µM: 203%
HEK293F cells [4]
  toxicity: mild toxicity

## O=C(NCC1(c2nc(-c3ccccc3)cs2)CCOCC1)c1cccc(-c2noc(C(F)(F)F)n2)c1 [TMP269]
HEK293F cells [1]; employed concentration 15 μM, none=100, N=2, FIG. 2B
  relative cell specific productivity: 99%
HDAC [2]; [6]
  HDAC class / isoform selectivity: preference to class IIa HDACs 4, 5, 7, and 9

## CC(/C=C/C(=O)NO)=C\[C@@H](C)C(=O)c1ccc(N(C)C)cc1 [Trichostatin A]
HDAC [5]
  HDACi: 99%

## CCC(=O)CCCCC[C@@H]1NC(=O)[C@H]2CCCCN2C(=O)[C@H]([C@@H](C)CC)NC(=O)[C@H](Cc2cn(OC)c3ccccc23)NC1=O [apicidin, Apicidin]
HEK293F cells [3]; 200 nM
  relative IgG concentration: 182%

## C=C(C)[C@@H]1CC[C@]2(C(=O)O)CC[C@]3(C)[C@H](CC[C@@H]4[C@@]5(C)CC[C@H](O)C(C)(C)[C@@H]5CC[C@]43C)[C@@H]12 [betulinic acid]
HEK293F cells [1]; Homo sapiens, HEK293F, 10 μM, none=100, N=2, FIG. 5, read-out: relative cell specific productivity
  activity at 10 µM: 121%

## Cc1ccc(NC(=O)CCCCCC(=O)Nc2ccccc2N)cc1 [pimelic diphenylamide 106]
HEK293F cells [1]; Homo sapiens, HEK293F, 20 μM, transfected control=100, N=3, FIG. 3B, read-out: relative cell specific productivity
  activity at 20 µM: 171%
HEK293F cells [1]; Homo sapiens, HEK293F, employed concentration 20 μM, none=100, N=2, FIG. 2B, read-out: relative cell specific productivity
  activity at 20 µM: 160%
HEK293F cells [1]; conc. 20 μM
  Mean cell specific productivity: 5.4 (20 μM) pg/cell/24 h
HDAC [5]; 20 μM, N=3, FIG. 3A
  HDACi: 22.6%
HDAC [5]
  HDAC inhibition: yes
HDAC [2]; HDAC classes, summary table
  HDAC selectivity: Class I
HDAC [2]; [6]
  HDAC class / isoform selectivity: class I HDAC inhibitor with highest affinity towards HDAC 1 and 3, high affinity towards HDAC 2 and modest affinity towards HDAC 8

## CCC(C)C(CC)C(N)=O (centres unmarked) [valnoctamide]
HEK293F cells [1]; 2 mM, in words
  TGE enhancement: Weak TGE enhancement
HEK293F cells [1]; Homo sapiens, HEK293F, 3 mM, transfected control=100, N=3, FIG. 3B, read-out: relative cell specific productivity
  activity at 3000 µM: 122%
HEK293F cells [1]; Homo sapiens, HEK293F, employed concentration 2 mM, none=100, N=2, FIG. 4, read-out: relative cell specific productivity
  activity at 2000 µM: 133%
HEK293F cells [1]; Homo sapiens, HEK293F, employed concentration 3 mM, none=100, N=2, FIG. 4, read-out: relative cell specific productivity
  activity at 3000 µM: 125%
HEK293F cells [1]; conc. 3 mM
  Mean cell specific productivity: 1.71 (3 mM) pg/cell/24 h
HEK293F cells [1]; summary table, in words
  Effect on titer/SPR: weak
HDAC [5]; 3 mM, N=3, FIG. 3A
  HDACi: 11.1%
HDAC [5]
  HDAC inhibition: no

## CCC(C)C(CC)C(=O)O (centres unmarked) [valnoctic acid]
HDAC [2]; [6]
  HDAC inhibitory activity: weak HDAC inhibitory activity

## EGF: epidermal growth factor, NFκB activator
HEK293F cells [1]; 20 ng/mL, single treatment, N=3
  specific productivity after 96 hours: 2.56 pg/cell/day
HEK293F cells [1]; [7]
  relative cell specific productivity: 173%
HEK293F cells [1]
  TGE enhancement after BAY11-7082 treatment compared to the corresponding single treatment: significantly reduced

## TNFalpha
HEK293F cells [1]; [7]
  relative cell specific productivity: 139%
HEK293F cells [1]; 50 ng/mL, single treatment, N=3
  specific productivity after 96 hours: 2.66 pg/cell/day
HEK293F cells [1]; 50 ng/mL, single treatment, none=100, N=3
  relative cell specific productivity: 157%
HEK293F cells [1]
  TGE enhancement after BAY11-7082 treatment compared to the corresponding single treatment: significantly reduced
